{
  "source": "patent US20130005721A1",
  "about": "“INDOLIZINE INHIBITORS OF 5-LIPOXYGENASE” (PANMIRA PHARMACEUTICALS, LLC, priority 2009, published 2013)",
  "data": [
    {"system": "human leukocytes (LTB4 production, calcium ionophore stimulated)", "assay": "Human Leukocyte LTB4 Inhibition Assay", "format": "cell-based", "conditions": "LTB4 by ELISA, read-out: LTB4 HLA IC50", "protocol": "(§1) Human Leukocyte LTB4 Inhibition Assay\n(§2) A non-limiting example of a human leukocyte inhibition assay is as follows; Blood was drawn from consenting human volunteers into heparanized tubes and 3% dextran 0.9% saline ⅓ rd volume added. After sedimentation of red blood cells a hypotonic lysis of remaining red blood cells was performed and leukocytes sedimented at 1200 rpm. The pellet was resuspended at 1.25×10^5 cells/ml and aliquoted into wells containing 1 μL 100% DMSO (vehicle) or 2.5 μL drug in 100% DMSO. Samples were incubated for 5 minutes at 37° C. and 2 μL calcium ionophore […] (from a 50 mM DMSO stock diluted just prior to the assay in Hanks balanced salt solution (Invitrogen)) to 1.25 mM) was added, solutions mixed and incubated for 30 minutes at 37° C. Samples were centrifuged at 1,200 rpm (−200×g) for 10 minutes at 4° C., plasma removed and a 1:4 dilution assayed for LTB4 concentration using ELISA (Assay Designs). Drug concentrations to achieve 50% inhibition (IC50's) of vehicle LTB4 were determined by nonlinear regression (Graphpad Prism) of % inhibition versus log drug concentration.", "units": {"IC50": "nM"}, "values": [
      {"smiles": "CCC(O)(c1cn(Cc2ccn3c(-c4ccc(F)cc4)c(C(N)=O)cc3c2)nn1)C(F)(F)F", "note": "(single isomer, unassigned) [Compound 1-10, 3-(4-Fluoro-phenyl)-7-[4-(1-hydroxy-1-trifluoromethyl-propyl)-[1,2,3]triazol-1-ylmethyl]-indolizine-2-carboxylic acid amide]", "IC50": "< 300"},
      {"smiles": "CCC(O)(c1cn(Cc2ccn3c(-c4ccc(F)cc4)c(C#N)cc3c2)nn1)C(F)(F)F", "note": "(stereo not shown) [Compound 1-22, 3-(4-Fluoro-phenyl)-7-[4-(1-hydroxy-1-trifluoromethyl-propyl)-[1,2,3]triazol-1-ylmethyl]-indolizine-2-carbonitrile]", "IC50": "< 300"}
    ]},
    {"system": "human leukocytes (LTB4 production, calcium ionophore stimulated)", "assay": "Human Leukocyte LTB4 Inhibition Assay", "format": "cell-based", "conditions": "Leukocyte, LTB4 by ELISA, read-out: LTB4 HLA IC50", "protocol": "as §1, §2", "units": {"IC50": "nM"}, "values": [
      {"smiles": "CCC(O)(c1cn(Cc2ccn3c(-c4ccc(F)cc4)c(C(N)=O)cc3c2)nn1)C(F)(F)F", "note": "(stereo not shown) [Compound 1-6, 3-(4-Fluoro-phenyl)-7-[4-(1-hydroxy-1-trifluoromethyl-propyl)-[1,2,3]triazol-1-ylmethyl]-indolizine-2-carboxylic acid amide]", "IC50": "< 300"},
      {"smiles": "CCC(O)(c1cn(Cc2ccn3c(-c4ccc(F)cc4)c(C=O)cc3c2)nn1)C(F)(F)F", "note": "(stereo not shown) [Compound 1-33, 3-(4-Fluoro-phenyl)-7-[4-(1-hydroxy-1-trifluoromethyl-propyl)-[1,2,3]triazol-1-ylmethyl]-indolizine-2-carbaldehyde]", "IC50": "< 300"},
      {"smiles": "CCOC(=O)c1nc2cc(Cn3cc(C(O)(CC)C(F)(F)F)nn3)ccn2c1-c1ccc(F)cc1", "note": "(stereo not shown) [Compound 1-13, 3-(4-Fluoro-phenyl)-7-[4-(1-hydroxy-1-trifluoromethyl-propyl)-[1,2,3]triazol-1-ylmethyl]-imidazo[1,2-a]pyridine-2-carboxylic acid ethyl ester]", "IC50": "< 300"},
      {"smiles": "CCNC(=O)c1cc2cc(Cn3cc(C(O)(CC)C(F)(F)F)nn3)ccn2c1-c1ccc(F)cc1", "note": "(stereo not shown) [Compound 1-55, 3-(4-Fluoro-phenyl)-7-[4-(1-hydroxy-1-trifluoromethyl-propyl)-[1,2,3]triazol-1-ylmethyl]-indolizine-2-carboxylic acid ethylamide]", "IC50": "300 to 1000"},
      {"smiles": "CCOC(=O)c1cc2cc(Cn3cc(C(O)(CC)C(F)(F)F)nn3)ccn2c1-c1cccnc1", "note": "(stereo not shown) [Compound 1-24, 7-[4-(1-Hydroxy-1-trifluoromethyl-propyl)-[1,2,3]triazol-1-ylmethyl]-3-pyridin-3-yl-indolizine-2-carboxylic acid ethyl ester]", "IC50": "< 300"},
      {"smiles": "CCC(O)(c1nnc(NCc2ccn3c(-c4ccc(F)cc4)c(C(N)=O)cc3c2)o1)C(F)(F)F", "note": "(single isomer, unassigned) [Compound 1-20, 3-(4-Fluoro-phenyl)-7-{[5-(1-hydroxy-1-trifluoromethyl-propyl)-[1,3,4]oxadiazol-2-ylamino]-methyl}-indolizine-2-carboxylic acid amide]", "IC50": "< 300"},
      {"smiles": "CCC(O)(c1cn(Cc2ccn3c(-c4ccc(F)cc4)c(/C=C/C(N)=O)cc3c2)nn1)C(F)(F)F", "note": "(stereo not shown) [Compound 1-43, (E)-3-{3-(4-Fluoro-phenyl)-7-[4-(1-hydroxy-1-trifluoromethyl-propyl)-[1,2,3]triazol-1-ylmethyl]-indolizin-2-yl}-acrylamide]", "IC50": "< 300"},
      {"smiles": "CCC(O)(c1cn(Cc2ccn3c(-c4ccc(F)cc4)c(C(=O)O)cc3c2)nn1)C(F)(F)F", "note": "(stereo not shown) [Compound 1-5, 3-(4-Fluoro-phenyl)-7-[4-(1-hydroxy-1-trifluoromethyl-propyl)-[1,2,3]triazol-1-ylmethyl]-indolizine-2-carboxylic acid]", "IC50": "300 to 1000"},
      {"smiles": "CCC(O)(c1cn(Cc2ccn3c(-c4ccc(F)cc4)c(COC)cc3c2)nn1)C(F)(F)F", "note": "(stereo not shown) [Compound 1-44, 1,1,1-Trifluoro-2-{1-[3-(4-fluoro-phenyl)-2-methoxymethyl-indolizin-7-ylmethyl]-1H-[1,2,3]triazol-4-yl}-butan-2-ol]", "IC50": "< 300"},
      {"smiles": "CCOC(=O)c1cc2cc(Cn3cc(C(O)(CC)C(F)(F)F)nn3)ccn2c1Cl", "note": "(single isomer, unassigned) [Compound 1-87, 3-Chloro-7-[4-(1-hydroxy-1-trifluoromethyl-propyl)-[1,2,3]triazol-1-ylmethyl]-indolizine-2-carboxylic acid ethyl ester]", "IC50": "< 300"},
      {"smiles": "CCC(O)(c1cn(Cc2ccn3c(-c4ccc(F)cc4)c(CN4CCOCC4)cc3c2)nn1)C(F)(F)F", "note": "(stereo not shown) [Compound 1-38, 1,1,1-Trifluoro-2-{1-[3-(4-fluoro-phenyl)-2-morpholin-4-ylmethyl-indolizin-7-ylmethyl]-1H-[1,2,3]triazol-4-yl}-butan-2-ol]", "IC50": "300 to 1000"},
      {"smiles": "CCC(O)(c1cn(Cc2ccn3c(-c4ccc(F)cc4)c(CNCCC(=O)O)cc3c2)nn1)C(F)(F)F", "note": "(stereo not shown) [Compound 1-40, 3-({3-(4-Fluoro-phenyl)-7-[4-(1-hydroxy-1-trifluoromethyl-propyl)-[1,2,3]triazol-1-ylmethyl]-indolizin-2-ylmethyl}-amino)-propionic acid]", "IC50": "> 1000"},
      {"smiles": "CCOC(=O)c1cc2cc(Cn3cc(C(O)(CC)C(F)(F)F)nn3)ccn2c1-c1cncnc1", "note": "(stereo not shown) [Compound 1-73, 7-[4-(1-Hydroxy-1-trifluoromethyl-propyl)-[1,2,3]triazol-1-ylmethyl]-3-pyrimidin-5-yl-indolizine-2-carboxylic acid ethyl ester]", "IC50": "< 300"},
      {"smiles": "CCC(O)(c1cn(Cc2ccn3c(-c4ccc(F)cc4)c(CS(C)(=O)=O)cc3c2)nn1)C(F)(F)F", "note": "(stereo not shown) [Compound 1-34, 1,1,1-Trifluoro-2-{1-[3-(4-fluoro-phenyl)-2-methanesulfonylmethyl-indolizin-7-ylmethyl]-1H-[1,2,3]triazol-4-yl}-butan-2-ol]", "IC50": "< 300"},
      {"smiles": "CCC(O)(c1cn(Cc2ccn3c(-c4ccc(F)cc4)c(C(=O)N4CCS(=O)(=O)C4)cc3c2)nn1)C(F)(F)F", "note": "(stereo not shown) [Compound 1-50, (1,1-Dioxo-1λ^6-thiazolidin-3-yl)-{3-(4-fluoro-phenyl)-7-[4-(1-hydroxy-1-trifluoromethyl-propyl)-[1,2,3]triazol-1-ylmethyl]-indolizin-2-yl}-methanone]", "IC50": "> 1000"},
      {"smiles": "CCC(O)(c1cn(Cc2ccn3c(-c4ccc(F)cc4)c(/C=C/C(=O)O)cc3c2)nn1)C(F)(F)F", "note": "(stereo not shown) [Compound 1-41, (E)-3-{3-(4-Fluoro-phenyl)-7-[4-(1-hydroxy-1-trifluoromethyl-propyl)-[1,2,3]triazol-1-ylmethyl]-indolizin-2-yl}-acrylic acid]", "IC50": "300 to 1000"},
      {"smiles": "CCOC(=O)c1cc2cc(Cn3cc(C(O)(CC)C(F)(F)F)nn3)ccn2c1-c1cnc2ccccc2c1", "note": "(stereo not shown) [Compound 1-52, 7-[4-(1-Hydroxy-1-trifluoromethyl-propyl) [1,2,3]triazol-1-ylmethyl]-3-quinolin-3-yl-indolizine-2-carboxylic acid ethyl ester]", "IC50": "< 300"},
      {"smiles": "CCC(O)(c1cn(Cc2ccn3c(-c4ccc(OC)nc4)c(C(N)=O)cc3c2)nn1)C(F)(F)F", "note": "(single isomer, unassigned) [Compound 1-78, 7-[4-(1-Hydroxy-1-trifluoromethyl-propyl)-[1,2,3]triazol-1-ylmethyl]-3-(6-methoxy-pyridin-3-yl)-indolizine-2-carboxylic acid amide]", "IC50": "< 300"},
      {"smiles": "CCC(O)(c1cn(Cc2ccn3c(-c4ccc(F)cc4)c(C(C)=O)cc3c2)nn1)C(F)(F)F", "note": "(stereo not shown) [Compound 1-54, 1-{3-(4-Fluoro-phenyl)-7-[4-(1-hydroxy-1-trifluoromethyl-propyl)-[1,2,3]triazol-1-ylmethyl]-indolizin-2-yl}-ethanone]", "IC50": "< 300"},
      {"smiles": "CCOC(=O)c1cc2cc(Cn3cc(C(O)(CC)C(F)(F)F)nn3)ccn2c1-c1ccc(OC)nc1", "note": "(stereo not shown) [Compound 1-36, 7-[4-(1-Hydroxy-1-trifluoromethyl-propyl)-[1,2,3]triazol-1-ylmethyl]-3-(6-methoxy-pyridin-3-yl)-indolizine-2-carboxylic acid ethyl ester]", "IC50": "< 300"},
      {"smiles": "CCC(O)(c1cn(Cc2ccn3c(-c4ccc(Cl)cc4)c(C(N)=O)cc3c2)nn1)C(F)(F)F", "note": "(stereo not shown) [Compound 1-28, 3-(4-Chloro-phenyl)-7-[4-(1-hydroxy-1-trifluoromethyl-propyl)-[1,2,3]triazol-1-ylmethyl]-indolizine-2-carboxylic acid amide]", "IC50": "< 300"},
      {"smiles": "CCC(O)(c1cn(Cc2ccn3c(-c4ccc(OC)nc4)c(C(N)=O)cc3c2)nn1)C(F)(F)F", "note": "(stereo not shown) [Compound 1-35, 7-[4-(1-Hydroxy-1-trifluoromethyl-propyl)-[1,2,3]triazol-1-ylmethyl]-3-(6-methoxy-pyridin-3-yl)-indolizine-2-carboxylic acid amide]", "IC50": "300 to 1000"},
      {"smiles": "CCC(O)(c1cn(Cc2ccn3c(-c4ccnc(C)c4)c(C#N)cc3c2)nn1)C(F)(F)F", "note": "(stereo not shown) [Compound 1-65, 7-[4-(1-Hydroxy-1-trifluoromethyl-propyl)-[1,2,3]triazol-1-ylmethyl]-3-(2-methyl-pyridin-4-yl)-indolizine-2-carbonitrile]", "IC50": "< 300"},
      {"smiles": "CCOC(=O)CCNCc1cc2cc(Cn3cc(C(O)(CC)C(F)(F)F)nn3)ccn2c1-c1ccc(F)cc1", "note": "(stereo not shown) [Compound 1-37, 3-({3-(4-Fluoro-phenyl)-7-[4-(1-hydroxy-1-trifluoromethyl-propyl)-[1,2,3]triazol-1-ylmethyl]-indolizin-2-ylmethyl}-amino)-propionic acid ethyl ester]", "IC50": "< 300"},
      {"smiles": "CCC(O)(c1cnc(Sc2ccn3cc(C(=O)O)cc3c2)s1)C(F)(F)F", "note": "(stereo not shown) [Compound 1-2, 7-[5-(1-Hydroxy-1-trifluoromethyl-propyl)-thiazol-2-ylsulfanyl]-indolizine-2-carboxylic acid]", "IC50": "> 1000"},
      {"smiles": "CCC(O)(c1cn(Cc2ccn3c(-c4ccc(=O)n(C)c4)c(C#N)cc3c2)nn1)C(F)(F)F", "note": "(stereo not shown) [Compound 1-70, 7-[4-(1-Hydroxy-1-trifluoromethyl-propyl)-[1,2,3]triazol-1-ylmethyl]-3-(1-methyl-6-oxo-1,6-dihydro-pyridin-3-yl)-indolizine-2-carbonitrile]", "IC50": "> 1000"}
    ]}
  ]
}
